Experimental findings from patent US10053468B2, “Heterocyclic compound” (TAKEDA PHARMACEUTICAL COMPANY LIMITED, priority 2013, dated 2018) are described below.

Read-outs that look alike come from different tables or passages of the source.

The target in assay [1] is T1, RORγt (Homo sapiens, UniProt P51449).
T1 sequence (P51449 1-497 isoform P51449-2): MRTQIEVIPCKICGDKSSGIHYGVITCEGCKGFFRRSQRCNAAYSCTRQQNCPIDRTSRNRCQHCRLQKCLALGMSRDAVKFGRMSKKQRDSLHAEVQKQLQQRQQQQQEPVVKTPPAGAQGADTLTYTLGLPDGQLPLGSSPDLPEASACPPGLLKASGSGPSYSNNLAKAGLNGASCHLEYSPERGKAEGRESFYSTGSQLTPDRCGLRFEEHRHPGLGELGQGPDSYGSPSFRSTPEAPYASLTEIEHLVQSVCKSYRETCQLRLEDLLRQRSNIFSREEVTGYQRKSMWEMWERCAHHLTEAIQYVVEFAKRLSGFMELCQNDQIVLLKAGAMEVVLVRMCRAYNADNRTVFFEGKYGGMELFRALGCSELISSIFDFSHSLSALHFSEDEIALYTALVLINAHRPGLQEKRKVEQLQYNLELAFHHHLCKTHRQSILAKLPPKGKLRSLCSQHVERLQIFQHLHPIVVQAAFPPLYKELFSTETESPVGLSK
Kind of assay: Cofactor recruitment test (Alpha Screen, biotinylated SRC-1 peptide). Format: biochemical. Particulars: read-out: Signal value inhibitory rate at test compound 1 μM (%). How it is done:
Cofactor Recruitment Test
Cofactor recruitment test was performed by Alpha Screen (Histidine Detection Kit, PerkinElmer) method. First, a test compound was diluted with an assay buffer (50 mM Tris-HCl (pH 7.5), 50 mM KCl, 1 mM DTT, 0.1% BSA) and added to a 384 well plate by 5 μL. […] The mixture was stood in a dark place for 1 hr, and the signal value was measured by Envision (PerkinElmer).

Assay [2] addresses T1, RORγt. Kind of assay: Jurkat reporter test (human IL-17 ROR response element luciferase, RORγt vector). Format: cell-based. Particulars: read-out: Luminescence level inhibitory rate at test compound 3 μM (%). A digest of the protocol: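 Luminescence (Bright-Glo, 10 min, RT) was measured after overnight compound treatment of electroporated Jurkat cells (1350 V, 10 ms interval, 3 pulses). The reaction medium was RPMI with 10% lipid-reduced FCS, 10 mM HEPES (pH 7.5) and 5 μM lovastatin.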

Assay [3] concerns the target T1, RORγt. Put plainly: RORγt binding test using fluorescent-labeled cholesterol (TR-FRET). Particulars: read-out: Binding inhibitory rate of fluorescent-labeled cholesterol to RORγt at test compound 1 μM (%). A digest of the protocol:
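After 20 min at room temperature with His-tagged RORγt and BODIPY-cholesterol in pH 7.5 Tris buffer (NaCl, DTT, BSA), compound wells got terbium anti-His antibody for another 20 min. Time-resolved FRET was read with excitation 320 nm, emission 520 nm and a 100 µs delay.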
(TR-FRET usually uses a lanthanide donor and a delayed reading to cut background.)

Assay [4] has as its target T1, RORγt. Put plainly: RORγt binding test using fluorescent-labeled synthetic ligand (TR-FRET). Particulars: read-out: Binding inhibitory rate of fluorescent-labeled synthetic ligand to RORγt at test compound 1 μM (%). A digest of the protocol: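 His-tagged RORγt (diluted to 240 nM) with compound, then fluorescent synthetic ligand (diluted to 12 μM), 20 min at room temperature, followed by Tb anti-His antibody (diluted to 8 nM), 20 min.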

[5] abbreviates: test compound 3 μM, Jurkat cells.

In the case of `COCc1ccc2c(c1)CCN(C(=O)Cc1cc(O)no1)[C@H]2C(=O)Nc1cc(F)c([Si](C)(C)C)c(F)c1` [Example 121, (1R)-N-(3,5-difluoro-4-(trimethylsilyl)phenyl)-2-((3-hydroxy-1,2-oxazol-5-yl)acetyl)-6-(methoxymethyl)-1,2,3,4-tetrahydroisoquinoline-1-carboxamide], the figures for the inhibition at 1 µM at RORγt [1], on RORγt [3] and at RORγt [4] were 100%, 101% and 101%, respectively. Further, on RORγt [2] (Jurkat), the inhibition at 3 µM was determined as 103%.

`COCC(C)(C)c1ccc(NC(=O)[C@H]2c3ccc(OC)cc3CCN2C(=O)Cc2cc(O)no2)cc1F` [Example 70, (1R)-N-(3-fluoro-4-(1-methoxy-2-methylpropan-2-yl)phenyl)-2-((3-hydroxy-1,2-oxazol-5-yl)acetyl)-6-methoxy-1,2,3,4-tetrahydroisoquinoline-1-carboxamide]: the inhibition at 1 µM at RORγt [1] is 82%; at RORγt [3], 102%; on RORγt [4] it was 102%. Further, at RORγt [2] (setting [5]), the inhibition at 3 µM was found to be 99%.

With `COc1ccc2c(c1)CCN(C(=O)CCc1cc(O)no1)[C@H]2C(=O)Nc1cc(F)c2c(c1)CCC2(C)C` [Example 63, (1R)-N-(7-fluoro-1,1-dimethyl-2,3-dihydro-1H-inden-5-yl)-2-(3-(3-hydroxy-1,2-oxazol-5-yl)propanoyl)-6-methoxy-1,2,3,4-tetrahydroisoquinoline-1-carboxamide], the inhibition at 1 µM at RORγt [1] was found to be 70%; at RORγt [3], 100%; on RORγt [4], 102%. Further, the inhibition at 3 µM at RORγt [2] (setting [5]) is 99.9%.

In the case of `COCc1ccc2c(n1)CCN(C(=O)c1cc(O)no1)[C@H]2C(=O)Nc1cc(F)c([Si](C)(C)C)c(F)c1` [Example 136, (5R)-N-(3,5-difluoro-4-(trimethylsilyl)phenyl)-6-((3-hydroxy-1,2-oxazol-5-yl)carbonyl)-2-(methoxymethyl)-5,6,7,8-tetrahydro-1,6-naphthyridine-5-carboxamide], the results for the inhibition at 1 µM on RORγt [1], at RORγt [3] and on RORγt [4] were 97%, 100% and 102%, respectively. Moreover, at RORγt [2] (Jurkat), the inhibition at 3 µM was 103%.

Turning to `COc1ccc2c(c1)CCN(C(=O)Cc1cc(O)no1)[C@H]2C(=O)Nc1cc(F)c2c(c1)CCC2(C)C` [Example 45, (1R)-N-(7-fluoro-1,1-dimethyl-2,3-dihydro-1H-inden-5-yl)-2-((3-hydroxy-1,2-oxazol-5-yl)acetyl)-6-methoxy-1,2,3,4-tetrahydroisoquinoline-1-carboxamide], the inhibition at 1 µM worked out at 76.9% at RORγt [1], 103% on RORγt [3] and 102% at RORγt [4]. Also, the inhibition at 3 µM at RORγt [2] (setting [5]) is 99.6%.

Take `COCc1ccc2c(c1)CCN(C(=O)Cc1cc(O)no1)[C@H]2C(=O)Nc1cc(F)c2c(c1)CCC2(C)C` [Example 169, (1R)-N-(7-fluoro-1,1-dimethyl-2,3-dihydro-1H-inden-5-yl)-2-((3-hydroxy-1,2-oxazol-5-yl)acetyl)-6-(methoxymethyl)-1,2,3,4-tetrahydroisoquinoline-1-carboxamide]: the inhibition at 1 µM turned out to be 93% on RORγt [1], 102% on RORγt [3] and 102% at RORγt [4]. In addition, the inhibition at 3 µM on RORγt [2] (setting [5]) came out at 102%.

Take `COc1ccc2c(c1)CCN(C(=O)Cc1nnc(C)o1)[C@H]2C(=O)Nc1cc(F)c(C(C)(C)C(=O)N2CCCC2)c(F)c1` [Example 106, (1R)-N-(3,5-difluoro-4-(2-methyl-1-oxo-1-(pyrrolidin-1-yl)propan-2-yl)phenyl)-6-methoxy-2-((5-methyl-1,3,4-oxadiazol-2-yl)acetyl)-1,2,3,4-tetrahydroisoquinoline-1-carboxamide]: the inhibition at 1 µM amounted to 101% on RORγt [1], 102% on RORγt [3] and 101% at RORγt [4]. In addition, on RORγt [2] (setting [5]), the inhibition at 3 µM turned out to be 102%.

`CCOCC(C)(C)c1c(F)cc(NC(=O)[C@H]2c3ccc(OCC)cc3CCN2C(=O)c2cc(O)no2)cc1F` [Example 167, (1R)-6-ethoxy-N-(4-(1-ethoxy-2-methylpropan-2-yl)-3,5-difluorophenyl)-2-((3-hydroxy-1,2-oxazol-5-yl)carbonyl)-1,2,3,4-tetrahydroisoquinoline-1-carboxamide]: the inhibition at 1 µM at RORγt [1] stood at 85%; on RORγt [3], 101%; at RORγt [4], 102%. Further, on RORγt [2] (setting [5]), the inhibition at 3 µM was found to be 97%.

In the case of `COc1ccc2c(c1)CCN(C(=O)Cc1cc(O)no1)[C@H]2C(=O)Nc1ccc([Si](C)(C)C)c(F)c1` [Example 73, (1R)-N-(3-fluoro-4-(trimethylsilyl)phenyl)-2-((3-hydroxy-1,2-oxazol-5-yl)acetyl)-6-methoxy-1,2,3,4-tetrahydroisoquinoline-1-carboxamide], the inhibition at 1 µM at RORγt [1] came to 90%; at RORγt [3], 102%; at RORγt [4], 102%. Also, the inhibition at 3 µM at RORγt [2] (Jurkat) was determined as 100%.

On to `COCC(C)(C)c1c(F)cc(NC(=O)[C@H]2c3ccc(OC)cc3CCN2C(=O)c2cc(O)no2)cc1F` [Example 97, (1R)-N-(3,5-difluoro-4-(1-methoxy-2-methylpropan-2-yl)phenyl)-2-((3-hydroxy-1,2-oxazol-5-yl)carbonyl)-6-methoxy-1,2,3,4-tetrahydroisoquinoline-1-carboxamide], for which the inhibition at 1 µM at RORγt [1] was found to be 96%; on RORγt [3], 102%; at RORγt [4] it was 101%. For the same compound, at RORγt [2] (setting [5]), the inhibition at 3 µM is 102%.

For `CCOCC(C)(C)c1c(F)cc(NC(=O)[C@H]2c3ccc(OC)cc3CCN2C(=O)CCCC(=O)O)cc1F` [Example 172, 5-((1R)-1-((4-(1-ethoxy-2-methylpropan-2-yl)-3,5-difluorophenyl)carbamoyl)-6-methoxy-3,4-dihydroisoquinolin-2(1H)-yl)-5-oxopentanoic acid], the inhibition at 1 µM worked out at 82% at RORγt [1], 101% on RORγt [3] and 101% at RORγt [4]. In addition, the inhibition at 3 µM on RORγt [2] (setting [5]) was 97%.

Take `CCOc1ccc2c(c1)CCN(C(=O)Cc1cc(O)no1)[C@H]2C(=O)Nc1cc(F)c2c(c1)CCC2(C)C` [Example 66, (1R)-6-ethoxy-N-(7-fluoro-1,1-dimethyl-2,3-dihydro-1H-inden-5-yl)-2-((3-hydroxy-1,2-oxazol-5-yl)acetyl)-1,2,3,4-tetrahydroisoquinoline-1-carboxamide]: the inhibition at 1 µM on RORγt [1] worked out at 82%; on RORγt [3], 102%; on RORγt [4], 102%. The inhibition at 3 µM on RORγt [2] (setting [5]) turned out to be 99.5%.

Take `COc1ccc2c(c1)CCN(C(=O)CC(F)(F)F)[C@H]2C(=O)Nc1cc(F)c(C(C)(C)C(=O)N2CCCC2)c(F)c1` [Example 104, (1R)-N-(3,5-difluoro-4-(2-methyl-1-oxo-1-(pyrrolidin-1-yl)propan-2-yl)phenyl)-6-methoxy-2-(3,3,3-trifluoropropanoyl)-1,2,3,4-tetrahydroisoquinoline-1-carboxamide]: the inhibition at 1 µM on RORγt [1] amounted to 101%; at RORγt [3], 102%; at RORγt [4] it was 101%. At RORγt [2] (setting [5]), the inhibition at 3 µM was 102%.

Take `CCOc1ccc2c(n1)CCN(C(=O)c1cc(O)no1)[C@H]2C(=O)Nc1cc(F)c([Si](C)(C)C)c(F)c1` [Example 126, (5R)-N-(3,5-difluoro-4-(trimethylsilyl)phenyl)-2-ethoxy-6-((3-hydroxy-1,2-oxazol-5-yl)carbonyl)-5,6,7,8-tetrahydro-1,6-naphthyridine-5-carboxamide]: the results for the inhibition at 1 µM at RORγt [1], on RORγt [3] and at RORγt [4] were 100%, 101% and 101%, respectively. Moreover, the inhibition at 3 µM at RORγt [2] (Jurkat) worked out at 102%.

Regarding `CCOc1ccc2c(n1)CCN(C(=O)CCCC(=O)O)[C@H]2C(=O)Nc1ccc([Si](C)(C)C)c(F)c1` [Example 152, 5-((5R)-2-ethoxy-5-((3-fluoro-4-(trimethylsilyl)phenyl)carbamoyl)-7,8-dihydro-1,6-naphthyridin-6(5H)-yl)-5-oxopentanoic acid], the inhibition at 1 µM is 97% at RORγt [1], 102% at RORγt [3] and 101% at RORγt [4]. Also, the inhibition at 3 µM at RORγt [2] (Jurkat) came to 103%.
